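These data come from cells grown in 96-well plates and exposed to compound for 48 hours at five concentrations. At the GI50, growth is halved.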 Activity calls are given as the source filed them. No stated cut-off is given here; in the data, active = GI50 up to about 1.1 µM and inactive = higher.
Tests used:
Experiment in all cases: growth of human tumour cells (NCI), 48 h
K562 = tested on: K562
SF-268 = tested on: SF-268
NCI-H226 = tested on: NCI-H226
SK-MEL-2 = tested on: SK-MEL-2
HT-29 = tested on: HT-29
CCRF-CEM = tested on: CCRF-CEM
BT-549 = tested on: BT-549
SR = tested on: SR
Malme-3M = tested on: Malme-3M
HCT-116 = tested on: HCT-116
MCF7 = tested on: MCF7
COLO 205 = tested on: COLO 205
SW-620 = tested on: SW-620
HCC 2998 = tested on: HCC 2998
SK-MEL-28 = tested on: SK-MEL-28
CAKI-1 = tested on: CAKI-1
MDA-N = tested on: MDA-N
PC-3 = tested on: PC-3
IGROV-1 = tested on: IGROV-1
A498 = tested on: A498

In the case of `COC(=O)N1C2C(C[C@@]1(C)C(=O)OC)c1ccccc1N2S(=O)(=O)c1ccccc1` (some centres undefined), the GI50 (K562) is reported as > 100 µM (inactive), the GI50 (SF-268) is reported as > 100 µM (inactive) and the GI50 (NCI-H226) is reported as > 100 µM (inactive). The GI50 (SK-MEL-2) was > 100 µM (inactive), the GI50 (HT-29) was > 100 µM (inactive) and the GI50 (CCRF-CEM) was > 100 µM (inactive). The GI50 (BT-549) was > 100 µM (inactive), the GI50 (SR) was > 100 µM (inactive) and the GI50 (Malme-3M) was > 100 µM (inactive). The GI50 (HCT-116) was > 100 µM (inactive), the GI50 (MCF7) was > 100 µM (inactive) and the GI50 (COLO 205) was > 100 µM (inactive). The GI50 (SW-620) was > 100 µM (inactive), the GI50 (HCC 2998) was > 100 µM (inactive) and the GI50 (SK-MEL-28) was > 100 µM (inactive). The GI50 (CAKI-1) was > 100 µM (inactive), the GI50 (MDA-N) was > 100 µM (inactive) and the GI50 (PC-3) was > 100 µM (inactive). The GI50 (IGROV-1) was > 100 µM (inactive).
For `O=C(c1ccccc1)c1ccc2[nH]c(-c3c(Cl)c(Cl)c(Cl)c(Cl)c3C(=O)N/N=C/c3cccc(Oc4ccccc4)c3)nc2c1`, the GI50 (K562) was 46.5 µM (inactive), the GI50 (SF-268) was 76.7 µM (inactive) and the GI50 (NCI-H226) was 84.1 µM (inactive). The GI50 (SK-MEL-2) was 46.2 µM (inactive), the GI50 (HT-29) was > 100 µM (inactive) and the GI50 (CCRF-CEM) was 39.6 µM (inactive). The GI50 (BT-549) was 93.8 µM (inactive), the GI50 (SR) was 36.3 µM (inactive) and the GI50 (Malme-3M) was > 100 µM (inactive). For the same molecule, the GI50 (HCT-116) was 76.6 µM (inactive), the GI50 (MCF7) was 42 µM (inactive) and the GI50 (COLO 205) was > 100 µM (inactive). For the same molecule, the GI50 (SW-620) was 56.1 µM (inactive), the GI50 (SK-MEL-28) was > 100 µM (inactive) and the GI50 (CAKI-1) was > 100 µM (inactive). For the same molecule, the GI50 (MDA-N) was 46.5 µM (inactive), the GI50 (PC-3) was 77.4 µM (inactive) and the GI50 (IGROV-1) was > 100 µM (inactive).
For `COc1ccccc1/C=C/c1cnccn1`, the GI50 (K562) was > 10 µM (inactive), the GI50 (SF-268) was > 10 µM (inactive) and the GI50 (NCI-H226) was > 10 µM (inactive). For the same molecule, the GI50 (SK-MEL-2) was > 10 µM (inactive), the GI50 (HT-29) was > 10 µM (inactive) and the GI50 (CCRF-CEM) was > 10 µM (inactive). For the same molecule, the GI50 (BT-549) was > 10 µM (inactive), the GI50 (Malme-3M) was > 10 µM (inactive) and the GI50 (HCT-116) was > 10 µM (inactive). The GI50 (MCF7) was > 10 µM (inactive), the GI50 (COLO 205) was > 10 µM (inactive) and the GI50 (A498) was > 10 µM (inactive). For the same molecule, the GI50 (SW-620) was > 10 µM (inactive), the GI50 (HCC 2998) was > 10 µM (inactive) and the GI50 (SK-MEL-28) was > 10 µM (inactive). The GI50 (CAKI-1) was > 10 µM (inactive), the GI50 (MDA-N) was > 10 µM (inactive) and the GI50 (PC-3) was > 10 µM (inactive). For the same molecule, the GI50 (IGROV-1) was > 10 µM (inactive).
`COc1ccc2oc(=N)c(C(N)=S)cc2c1` was tested, and the GI50 (K562) was 28.4 µM (inactive), the GI50 (SF-268) was 15.5 µM (inactive) and the GI50 (NCI-H226) was 19.9 µM (inactive). The GI50 (SK-MEL-2) was 18.4 µM (inactive), the GI50 (HT-29) was 32 µM (inactive) and the GI50 (CCRF-CEM) was 20.5 µM (inactive). The GI50 (BT-549) was 18.5 µM (inactive), the GI50 (SR) was 20 µM (inactive) and the GI50 (Malme-3M) was 14.1 µM (inactive). The GI50 (HCT-116) was 17.4 µM (inactive), the GI50 (MCF7) was 27.7 µM (inactive) and the GI50 (COLO 205) was 29.8 µM (inactive). The GI50 (SW-620) was 25.5 µM (inactive), the GI50 (HCC 2998) was 17.3 µM (inactive) and the GI50 (SK-MEL-28) was 30.4 µM (inactive). The GI50 (CAKI-1) was 37.8 µM (inactive), the GI50 (MDA-N) was 21.1 µM (inactive) and the GI50 (PC-3) was 27.5 µM (inactive). For the same molecule, the GI50 (IGROV-1) was 29.6 µM (inactive).
With `CC1=C(/C=C/C(C)=C/C=C/C(C)=C/C(=O)Nc2ccc(O)cc2)C(C)(C)CCC1` [FENRETINIDE] the GI50 (K562) was 2.69 µM (inactive), the GI50 (SF-268) was 3.52 µM (inactive) and the GI50 (NCI-H226) was 5.13 µM (inactive). The GI50 (SK-MEL-2) was 7.33 µM (inactive), the GI50 (HT-29) was 2.63 µM (inactive) and the GI50 (CCRF-CEM) was 0.057 µM (active). For the same molecule, the GI50 (BT-549) was 6.52 µM (inactive), the GI50 (Malme-3M) was 4.94 µM (inactive) and the GI50 (HCT-116) was 4.06 µM (inactive). The GI50 (MCF7) was 2.65 µM (inactive), the GI50 (COLO 205) was 2.61 µM (inactive) and the GI50 (A498) was 4.73 µM (inactive). For the same molecule, the GI50 (SW-620) was 5.48 µM (inactive), the GI50 (HCC 2998) was 4.16 µM (inactive) and the GI50 (SK-MEL-28) was 4.23 µM (inactive). For the same molecule, the GI50 (CAKI-1) was 5.06 µM (inactive), the GI50 (MDA-N) was 2.75 µM (inactive) and the GI50 (PC-3) was 3.13 µM (inactive). The GI50 (IGROV-1) was 2.02 µM (inactive).
For `CCCCCCCCCCCCCCCC(=O)Nc1ccn(C2CC(OP(=O)(O)OCC3OC(n4cc(F)c(=O)[nH]c4=O)CC3OC(C)=O)C(CO)O2)c(=O)n1` (centres undefined), the GI50 (K562) was 13.3 µM (inactive), the GI50 (SF-268) was 0.528 µM (active) and the GI50 (NCI-H226) was 31.2 µM (inactive). The GI50 (SK-MEL-2) was > 45.1 µM (inactive), the GI50 (HT-29) was 7.62 µM (inactive) and the GI50 (CCRF-CEM) was 3.18 µM (inactive). For the same molecule, the GI50 (BT-549) was 3.18 µM (inactive), the GI50 (SR) was 1 µM (active) and the GI50 (HCT-116) was 3.84 µM (inactive). For the same molecule, the GI50 (MCF7) was > 100 µM (inactive), the GI50 (COLO 205) was 18.3 µM (inactive) and the GI50 (A498) was > 35 µM (inactive). For the same molecule, the GI50 (SW-620) was 22.9 µM (inactive), the GI50 (SK-MEL-28) was 30.5 µM (inactive) and the GI50 (CAKI-1) was 1.56 µM (inactive). For the same molecule, the GI50 (MDA-N) was 42.5 µM (inactive), the GI50 (PC-3) was 7.87 µM (inactive) and the GI50 (IGROV-1) was 23.9 µM (inactive).
In the case of `CNS(=O)(=O)c1ccccc1C(=N)c1ccccc1`, the GI50 (K562) is reported as > 100 µM (inactive), the GI50 (SF-268) is reported as > 100 µM (inactive) and the GI50 (NCI-H226) is reported as > 100 µM (inactive). For the same molecule, the GI50 (SK-MEL-2) was > 100 µM (inactive), the GI50 (HT-29) was > 100 µM (inactive) and the GI50 (CCRF-CEM) was > 100 µM (inactive). For the same molecule, the GI50 (BT-549) was > 100 µM (inactive), the GI50 (SR) was > 100 µM (inactive) and the GI50 (Malme-3M) was > 100 µM (inactive). The GI50 (HCT-116) was > 100 µM (inactive), the GI50 (MCF7) was > 100 µM (inactive) and the GI50 (COLO 205) was > 100 µM (inactive). For the same molecule, the GI50 (A498) was > 100 µM (inactive), the GI50 (SW-620) was > 100 µM (inactive) and the GI50 (SK-MEL-28) was > 100 µM (inactive). The GI50 (CAKI-1) was > 100 µM (inactive), the GI50 (MDA-N) was > 100 µM (inactive) and the GI50 (PC-3) was > 100 µM (inactive). For the same molecule, the GI50 (IGROV-1) was > 100 µM (inactive).
In the case of `O=C(CNc1ccccc1[N+](=O)[O-])Nn1c(-c2ccccc2)nc2ccccc2c1=O`, the GI50 (K562) is reported as 16.3 µM (inactive), the GI50 (SF-268) is reported as 32.4 µM (inactive) and the GI50 (NCI-H226) is reported as 29.2 µM (inactive). The GI50 (HT-29) was 17.5 µM (inactive), the GI50 (CCRF-CEM) was 15.8 µM (inactive) and the GI50 (BT-549) was 17.9 µM (inactive). The GI50 (SR) was 18.2 µM (inactive), the GI50 (Malme-3M) was 23.9 µM (inactive) and the GI50 (HCT-116) was 16.1 µM (inactive). The GI50 (MCF7) was 19.1 µM (inactive), the GI50 (COLO 205) was 20.6 µM (inactive) and the GI50 (A498) was 26.2 µM (inactive). For the same molecule, the GI50 (SW-620) was 19.1 µM (inactive), the GI50 (HCC 2998) was 13.5 µM (inactive) and the GI50 (SK-MEL-28) was 23.5 µM (inactive). For the same molecule, the GI50 (MDA-N) was 19.9 µM (inactive), the GI50 (PC-3) was 22.2 µM (inactive) and the GI50 (IGROV-1) was 16.3 µM (inactive).
